Each compound was assayed against p38 MAP-kinase (Homo sapiens, UniProt Q16539) (assay: Enzymatic assay: inhibition of p38 MAP-kinase (phosphorylation of GST-tagged ATF2, chemoluminescence bead readout)). Conditions: inhibitor 1 μM; activated p38 MAP-kinase 1 nM; 4 h preincubation; ATP 100 μM; ATF2 10 nM; read-out: % inhibitory effect at 1 μM.
Assay type: biochemical
Method in brief: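 Activated human p38 MAP-kinase (1 nM) preincubated 4 h at ambient temperature with compound at 1 μM in HEPES pH 7, MgCl2, DTT, Tween20. Then reacted 1 h with GST-ATF2 (10 nM) and ATP (100 μM). Phospho-ATF2 read by bead chemoluminescence at 520-620 nm, given as % inhibition at 1 μM versus kinase-free background.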

p38 MAP-kinase, sequence (Q16539 whole entry): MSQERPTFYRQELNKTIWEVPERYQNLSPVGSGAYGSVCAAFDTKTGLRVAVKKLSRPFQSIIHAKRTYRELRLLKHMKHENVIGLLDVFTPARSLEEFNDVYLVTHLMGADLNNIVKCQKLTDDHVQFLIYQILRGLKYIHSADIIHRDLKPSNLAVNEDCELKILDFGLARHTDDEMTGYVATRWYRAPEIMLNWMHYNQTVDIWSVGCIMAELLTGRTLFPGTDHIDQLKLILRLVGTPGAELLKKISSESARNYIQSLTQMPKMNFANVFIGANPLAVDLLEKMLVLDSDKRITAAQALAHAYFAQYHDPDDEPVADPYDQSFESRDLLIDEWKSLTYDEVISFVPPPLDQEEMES

| SMILES | inhibition at 1 µM [%] |
| --- | --- |
| COc1c(NC(=O)c2ccc(C)c(Oc3ccnc(CN4CCOCC4)c3)c2)cc(C(C)(C)C)cc1NS(C)(=O)=O [8(9), N-(5-tert-butyl-3-methanesulphonylamino-2-methoxy-phenyl)-4-methyl-3-(2-morpholin-4-ylmethyl-pyridin-4-yloxy)-benzamide] | 98.4 |
| COc1c(NC(=O)c2ccc(Cl)c(Oc3ccnc(CN4CCN(C)CC4)c3)c2)cc(C(C)(C)C)cc1NS(C)(=O)=O [12(4), N-(5-tert-butyl-3-methanesulphonylamino-2-methoxy-phenyl)-4-chloro-3-[2-(4-methyl-piperazin-1-ylmethyl)-pyridin-4-yloxy]-benzamide] | 99.3 |
| COc1c(NC(=O)c2ccc(C)c(Oc3ccnc(CN4CC[C@H](O)C4)c3)c2)cc(C(C)(C)C)cc1NS(C)(=O)=O [8(13), (S)-N-(5-tert-butyl-3-methanesulphonylamino-2-methoxy-phenyl)-3-[2-(3-hydroxy-pyrrolidin-1-ylmethyl)-pyridin-4-yloxy]-4-methyl-benzamide] | 96.8 |
| CNCc1cc(Oc2cc(C(=O)Nc3cc(C(C)(C)C)cc(NS(C)(=O)=O)c3OC)ccc2C)ncn1 [8(1), N-(5-tert-butyl-3-methanesulphonylamino-2-methoxy-phenyl)-4-methyl-3-(6-methylaminomethyl-pyrimidin-4-yloxy)-benzamide] | 55.9 |
| COc1c(NC(=O)c2ccc(Cl)c(Oc3cc(CNCCN(C)C)ncn3)c2)cc(C(C)(C)C)cc1NS(C)(=O)=O [8(31), N-(5-tert-butyl-3-methanesulphonylamino-2-methoxy-phenyl)-4-chloro-3-{6-[(2-dimethylamino-ethylamino)-methyl]-pyrimidin-4-yloxy}-benzamide] | 86.5 |
| COc1c(NC(=O)c2ccc(Cl)c(Oc3cc(NC4CCN(C)CC4)ncn3)c2)cc(C(C)(C)C)cc1NS(C)(=O)=O [4(14), N-(5-tert-butyl-3-methanesulphonylamino-2-methoxy-phenyl)-4-chloro-3-[6-(1-methyl-piperidin-4-ylamino)-pyrimidin-4-yloxy]-benzamide] | 99.4 |
| COc1c(C[S+](C)[O-])cc(C(C)(C)C)cc1NC(=O)c1ccc(C)c(Oc2ccnc(CC3CCNCC3)c2)c1 (stereo not shown) [5(42), N-(5-tert-butyl-2-methoxy-3-methylsulphinylmethyl-phenyl)-4-methyl-3-(2-piperidin-4-ylmethyl-pyridin-4-yloxy)-benzamide] | 99.5 |
| COc1c(NC(=O)c2ccc(Cl)c(Oc3cc(CC4CCN(C)CC4)ncn3)c2)cc(C(C)(C)C)cc1NS(C)(=O)=O [12(2), N-(5-tert-butyl-3-methanesulphonylamino-2-methoxy-phenyl)-4-chloro-3-[6-(1-methyl-piperidin-4-ylmethyl)-pyrimidin-4-yloxy]-benzamide] | 98.7 |
| COc1c(NC(=O)c2cc(C)cc(Oc3ccnc(C(=O)N4CCNCC4)n3)c2)cc(C(C)(C)C)cc1NS(C)(=O)=O [5(21), N-(5-tert-butyl-3-methanesulphonylamino-2-methoxy-phenyl)-3-methyl-5-[2-(piperazine-1-carbonyl)-pyrimidin-4-yloxy]-benzamide x trifluoroacetic acid] | 88.9 |
| COc1c(NC(=O)c2ccc(C)c(Oc3cc(NCCO)ncn3)c2)cc(C(C)(C)C)cc1NS(C)(=O)=O [4(1), N-(5-tert-butyl-3-methanesulphonylamino-2-methoxy-phenyl)-3-[6-(2-hydroxy-ethylamino)-pyrimidin-4-yloxy]-4-methyl-benzamide] | 96.8 |
| COc1c(NC(=O)c2ccc(C)c(Oc3cc(N4CC[C@H](N(C)C)C4)ncn3)c2)cc(C(C)(C)C)cc1NS(C)(=O)=O [4(13), N-(5-tert-butyl-3-methanesulphonylamino-2-methoxy-phenyl)-3-[6-((S)-3-dimethylamino-pyrrolidin-1-yl)-pyrimidin-4-yloxy]-4-methyl-benzamide] | 96.3 |
| COc1c(NC(=O)c2ccc(C)c(Oc3cc(CN4CCN(C)CC4)ncn3)c2)cc(C(C)(C)C)cc1NS(C)(=O)=O [8(2), N-(5-tert-butyl-3-methanesulphonylamino-2-methoxy-phenyl)-4-methyl-3-[6-(4-methyl-piperazin-1-ylmethyl)-pyrimidin-4-yloxy]-benzamide] | 98.7 |

Results, then the compound that gave them:

| inhibition at 1 µM [%] | SMILES |
| --- | --- |
| 95.6 | COc1c(NC(=O)c2ccc(C)c(Oc3cc(N(C)C4CCN(C)C4)ncn3)c2)cc(C(C)(C)C)cc1NS(C)(=O)=O (stereo not shown) [4(20), N-(5-tert-butyl-3-methanesulphonylamino-2-methoxy-phenyl)-4-methyl-3-{6-[methyl-(1-methyl-pyrrolidin-3-yl)-amino]-pyrimidin-4-yloxy}-benzamide] |
| 95.2 | COc1c(NC(=O)c2ccc(C)c(Oc3ccnc(CN4CCOCC4)n3)c2)cc(C(C)(C)C)cc1NS(C)(=O)=O [8(3), N-(5-tert-butyl-3-methanesulphonylamino-2-methoxy-phenyl)-4-methyl-3-(2-morpholin-4-ylmethyl-pyrimidin-4-yloxy)-benzamide] |
| 98.9 | COc1c(NC(=O)c2ccc(C)c(Oc3ccnc(NC4CCNCC4)n3)c2)cc(C(C)(C)C)cc1NS(C)(=O)=O [5(16), N-(5-tert-butyl-3-methanesulphonylamino-2-methoxy-phenyl)-4-methyl-3-[2-(piperidin-4-ylamino)-pyrimidin-4-yloxy]-benzamide] |
| 99.6 | CCOc1c(NC(=O)c2ccc(C)c(Oc3ccnc(CC4CCNCC4)c3)c2)cc(C(C)(C)C)cc1NS(C)(=O)=O [5(45), N-(5-tert-butyl-2-ethoxy-3-methanesulphonylamino-phenyl)-4-methyl-3-(2-piperidin-4-ylmethyl-pyridin-4-yloxy)-benzamide] |
| 98.4 | COc1c(NC(=O)c2ccc(Br)c(Oc3ccnc(N4CCNCC4)n3)c2)cc(C(C)(C)C)cc1NS(C)(=O)=O [5(11), N-(5-tert-butyl-3-methanesulphonylamino-2-methoxy-phenyl)-4-bromo-3-(2-piperazin-1-yl-pyrimidin-4-yloxy)-benzamide] |
| 99.6 | COc1c(NC(=O)c2ccc(C)c(Oc3ccnc(CC4CCNCC4)c3)c2)cc(C(C)(C)C)cc1NS(=O)(=O)CC(C)C [5(46), N-[5-tert-butyl-2-methoxy-3-(2-methyl-propane-1-sulphonylamino)-phenyl]-4-methyl-3-(2-piperidin-4-ylmethyl-pyridin-4-yloxy)-benzamide] |
| 99.4 | CCCCS(=O)(=O)Nc1cc(C(C)(C)C)cc(NC(=O)c2ccc(C)c(Oc3ccnc(CC4CCNCC4)c3)c2)c1OC [11(1), N-[3-(butan-1-sulphonylamino)-5-tert-butyl-2-methoxy-phenyl]-4-methyl-3-(2-piperidin-4-ylmethyl-pyridin-4-yloxy)-benzamide] |
| 45.3 | COc1c(NC(=O)c2ccc(C(F)(F)F)c(Oc3ccnc(N4CCNCC4)n3)c2)cc(C(C)(C)C)cc1NS(C)(=O)=O [5(4), N-(5-tert-butyl-3-methanesulphonylamino-2-methoxy-phenyl)-3-(2-piperazin-1-yl-pyrimidin-4-yloxy)-4-trifluoromethyl-benzamide x trifluoroacetic acid] |
| 98.6 | COc1c(NC(=O)c2ccc(C)c(Oc3ccnc(N4CC[C@H](N(C)C)C4)n3)c2)cc(C(C)(C)C)cc1NS(C)(=O)=O [4(7), (S)-N-(5-tert-butyl-3-methanesulphonylamino-2-methoxy-phenyl)-3-[2-(3-dimethylamino-pyrrolidin-1-yl)-pyrimidin-4-yloxy]-4-methyl-benzamide] |
| 97 | COc1c(NC(=O)c2ccc(C)c(Oc3ccnc(CC4CCCNCC4)n3)c2)cc(C(C)(C)C)cc1NS(C)(=O)=O (stereo not shown) [5(53), 3-(2-azepan-4-ylmethyl-pyrimidin-4-yloxy)-N-(5-tert-butyl-3-methanesulphonylamino-2-methoxy-phenyl)-4-methyl-benzamide] |
| 98.3 | COc1c(NC(=O)c2ccc(Cl)c(Oc3ccnc(CN4CCNCC4)n3)c2)cc(C(C)(C)C)cc1NS(C)(=O)=O [5(35), N-(5-tert-butyl-3-methanesulphonylamino-2-methoxy-phenyl)-4-chloro-3-(2-piperazin-1-ylmethyl-pyrimidin-4-yloxy)-benzamide] |
| 97.6 | COc1c(NC(=O)c2ccc(C)c(Oc3cc(NC4CCNC4)ncn3)c2)cc(C(C)(C)C)cc1NS(C)(=O)=O (stereo not shown) [5(26), N-(5-tert-butyl-3-methanesulphonylamino-2-methoxy-phenyl)-4-methyl-3-[6-(pyrrolidin-3-ylamino)-pyrimidin-4-yloxy]-benzamide] |
| 99.7 | COc1c(NC(=O)c2ccc(C)c(Oc3cc(CC4CCCNCC4)ncn3)c2)cc(C(C)(C)C)cc1NS(C)(=O)=O (stereo not shown) [5(54), 3-(6-azepan-4-ylmethyl-pyrimidin-4-yloxy)-N-(5-tert-butyl-3-methanesulphonylamino-2-methoxy-phenyl)-4-methyl-benzamide] |
| 98.6 | COc1c(NC(=O)c2ccc(C)c(Oc3ccnc(N(C)C4CCN(C)C4)n3)c2)cc(C(C)(C)C)cc1NS(C)(=O)=O (stereo not shown) [4(19), N-(5-tert-butyl-3-methanesulphonylamino-2-methoxy-phenyl)-4-methyl-3-{2-[methyl-(1-methyl-pyrrolidin-3-yl)-amino]-pyrimidin-4-yloxy}-benzamide] |
| 97 | COc1c(NC(=O)c2ccc(C)c(Oc3ccnc(CN(C)C4CCN(C)C4)n3)c2)cc(C(C)(C)C)cc1NS(C)(=O)=O (stereo not shown) [8(19), N-(5-tert-butyl-3-methanesulphonylamino-2-methoxy-phenyl)-4-methyl-3-(2-{[methyl-(1-methyl-pyrrolidin-3-yl)-amino]-methyl}-pyrimidin-4-yloxy)-benzamide] |
| 99.9 | COc1c(NC(=O)c2ccc(C)c(Oc3ccnc(CC4CCN(C)CC4)n3)c2)cc(C(C)(C)C)cc1NS(C)(=O)=O [9(1), N-(5-tert-butyl-3-methanesulphonylamino-2-methoxy-phenyl)-4-methyl-3-[2-(1-methyl-piperidin-4-ylmethyl)-pyrimidin-4-yloxy]-benzamide] |
